# Active and inactive are the calls of the source.
# Columns and labels:
# [1] = HEp-2 cell cytotoxicity, dose response, cytotoxicity control for RSV inhibitor project, HTS (AID 2410); assay type: functional; conditions: human respiratory syncytial virus
# [2] = target: T1, Heat shock factor protein 1 (Mus musculus, UniProt P38532); experiment: inhibition of MG132-induced HSE-luciferase signal, confirmation, cell-based, NIH3T3, luminescence, dose retest (AID 2382); assay type: functional;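 further: NIH3T3 fibroblasts with HSF1-driven luciferase reporter stressed by proteasome inhibitor MG132; luminescence from HSF1-driven luciferase expression after 8 hours of MG132 stress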
# T1 sequence (P38532 whole entry): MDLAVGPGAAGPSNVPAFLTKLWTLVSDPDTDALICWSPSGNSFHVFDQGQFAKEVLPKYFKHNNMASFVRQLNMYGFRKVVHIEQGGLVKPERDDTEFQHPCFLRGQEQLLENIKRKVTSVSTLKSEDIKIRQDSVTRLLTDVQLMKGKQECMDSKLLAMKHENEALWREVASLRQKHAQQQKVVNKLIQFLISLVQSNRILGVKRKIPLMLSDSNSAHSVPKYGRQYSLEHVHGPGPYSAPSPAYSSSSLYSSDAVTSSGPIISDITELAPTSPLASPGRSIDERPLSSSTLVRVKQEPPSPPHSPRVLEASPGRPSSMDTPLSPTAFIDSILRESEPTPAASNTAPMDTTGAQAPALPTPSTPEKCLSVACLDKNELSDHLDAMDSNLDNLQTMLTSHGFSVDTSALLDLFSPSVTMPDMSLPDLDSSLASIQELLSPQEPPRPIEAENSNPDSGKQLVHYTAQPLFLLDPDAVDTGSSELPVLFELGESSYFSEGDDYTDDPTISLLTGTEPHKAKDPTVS
# [3] = Luminescence Cell-Based Dose Response HTS to Identify Activators of Luciferase Translation or Activity in H4 […] Cells. [Related pubchem assays: 1829 (Project Summary), 1814 (Primary HTS)]; assay type: functional
# [4] = test system: H4; experiment: Luminescence Cell-Based Dose Response HTS to Identify Activators of 5'UTR Stem-Loop Driven Prion Protein mRNA Translation in H4 Neuroglioblastoma Cells. [Related pubchem assays: 1829 (Project Summary), 1814 (Primary HTS)]; assay type: functional; conditions: Homo sapiens
# [5] = target: Cytochrome P450 2C19 (Homo sapiens, UniProt P33261); experiment: Cytochrome panel assay with activity outcomes. Panel member name: p450-cyp2c19 Compounds with AC50 equal or less than 10 uM are considered active; assay type: functional
# [6] = target: Cytochrome P450 2D6 (Homo sapiens, UniProt P10635);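 further: CYP2D6 member of a cytochrome P450 panel assay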
# [7] = Luminescence Cell-Based Dose Response HTS to Identify Inhibitors of 5'UTR Stem-Loop Driven Prion Protein mRNA Translation in H4 Neuroglioblastoma Cells. [Related pubchem assays: 1827 (Project Summary), 1813 (Primary HTS)]; assay type: functional
# [8] = target: Cytochrome P450 2C9 (Homo sapiens, UniProt P11712)
# [9] = target: T2, Cytochrome P450 1A2 (Homo sapiens, UniProt P05177);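 further: PubChem cytochrome P450 panel assay, CYP1A2 panel member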
# T2 sequence (P05177 whole entry): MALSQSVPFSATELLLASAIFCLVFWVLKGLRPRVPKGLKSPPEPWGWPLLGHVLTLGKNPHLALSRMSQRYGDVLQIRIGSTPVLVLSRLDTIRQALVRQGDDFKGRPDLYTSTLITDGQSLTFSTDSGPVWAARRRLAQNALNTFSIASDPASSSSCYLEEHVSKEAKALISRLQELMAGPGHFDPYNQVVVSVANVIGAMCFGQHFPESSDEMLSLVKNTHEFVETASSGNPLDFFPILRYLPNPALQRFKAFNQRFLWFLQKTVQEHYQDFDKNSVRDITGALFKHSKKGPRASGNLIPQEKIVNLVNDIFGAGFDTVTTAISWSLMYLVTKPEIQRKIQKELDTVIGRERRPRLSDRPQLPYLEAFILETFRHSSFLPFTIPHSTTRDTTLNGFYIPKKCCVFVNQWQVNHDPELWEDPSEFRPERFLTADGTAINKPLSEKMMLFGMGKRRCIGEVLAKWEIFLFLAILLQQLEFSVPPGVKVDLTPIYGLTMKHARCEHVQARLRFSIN
# [10] = target: Cytochrome P450 3A4 (Homo sapiens, UniProt P08684);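 further: CYP3A4 tested as one member of a cytochrome P450 panel screen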
# Cytochrome P450 3A4, sequence (P08684 whole entry): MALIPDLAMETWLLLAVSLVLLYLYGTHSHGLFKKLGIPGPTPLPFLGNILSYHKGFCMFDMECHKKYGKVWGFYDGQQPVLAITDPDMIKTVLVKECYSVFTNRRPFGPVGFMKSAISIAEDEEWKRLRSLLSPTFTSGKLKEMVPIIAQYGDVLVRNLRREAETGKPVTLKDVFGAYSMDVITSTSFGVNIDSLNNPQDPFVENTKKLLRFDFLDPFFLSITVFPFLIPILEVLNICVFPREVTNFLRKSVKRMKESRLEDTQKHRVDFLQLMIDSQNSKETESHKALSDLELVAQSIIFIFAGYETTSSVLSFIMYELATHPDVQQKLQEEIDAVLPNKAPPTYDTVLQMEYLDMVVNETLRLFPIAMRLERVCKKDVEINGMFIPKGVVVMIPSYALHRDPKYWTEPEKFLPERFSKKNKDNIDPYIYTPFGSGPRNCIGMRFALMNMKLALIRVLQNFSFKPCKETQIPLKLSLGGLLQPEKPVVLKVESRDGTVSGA
# Cytochrome P450 2D6, sequence (P10635 whole entry): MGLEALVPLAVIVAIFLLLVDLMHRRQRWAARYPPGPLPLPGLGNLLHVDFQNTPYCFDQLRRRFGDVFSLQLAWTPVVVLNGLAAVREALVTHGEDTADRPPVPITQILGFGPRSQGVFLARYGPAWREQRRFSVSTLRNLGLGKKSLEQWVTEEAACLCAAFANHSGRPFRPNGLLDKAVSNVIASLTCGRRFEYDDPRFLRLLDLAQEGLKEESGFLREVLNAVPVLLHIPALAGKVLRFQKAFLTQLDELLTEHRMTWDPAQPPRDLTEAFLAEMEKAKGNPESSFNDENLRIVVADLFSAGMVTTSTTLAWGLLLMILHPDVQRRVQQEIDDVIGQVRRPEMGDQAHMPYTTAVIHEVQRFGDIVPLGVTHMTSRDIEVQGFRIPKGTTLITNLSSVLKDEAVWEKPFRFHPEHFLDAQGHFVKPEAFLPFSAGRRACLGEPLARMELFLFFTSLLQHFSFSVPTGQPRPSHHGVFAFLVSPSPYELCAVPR
# Cytochrome P450 2C9, sequence (P11712 whole entry): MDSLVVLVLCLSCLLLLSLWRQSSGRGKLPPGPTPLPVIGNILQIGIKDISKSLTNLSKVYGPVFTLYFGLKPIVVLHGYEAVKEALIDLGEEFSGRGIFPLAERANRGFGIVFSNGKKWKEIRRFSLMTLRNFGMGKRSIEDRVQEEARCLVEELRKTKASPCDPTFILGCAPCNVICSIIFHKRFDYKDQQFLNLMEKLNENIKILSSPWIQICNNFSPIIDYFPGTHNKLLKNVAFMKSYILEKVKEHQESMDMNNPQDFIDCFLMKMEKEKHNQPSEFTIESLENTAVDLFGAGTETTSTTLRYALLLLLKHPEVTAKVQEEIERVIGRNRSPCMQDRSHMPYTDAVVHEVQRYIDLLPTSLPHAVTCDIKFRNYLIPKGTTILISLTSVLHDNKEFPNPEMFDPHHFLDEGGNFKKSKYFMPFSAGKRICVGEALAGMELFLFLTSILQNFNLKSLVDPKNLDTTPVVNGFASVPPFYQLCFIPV
# Cytochrome P450 2C19, sequence (P33261 whole entry): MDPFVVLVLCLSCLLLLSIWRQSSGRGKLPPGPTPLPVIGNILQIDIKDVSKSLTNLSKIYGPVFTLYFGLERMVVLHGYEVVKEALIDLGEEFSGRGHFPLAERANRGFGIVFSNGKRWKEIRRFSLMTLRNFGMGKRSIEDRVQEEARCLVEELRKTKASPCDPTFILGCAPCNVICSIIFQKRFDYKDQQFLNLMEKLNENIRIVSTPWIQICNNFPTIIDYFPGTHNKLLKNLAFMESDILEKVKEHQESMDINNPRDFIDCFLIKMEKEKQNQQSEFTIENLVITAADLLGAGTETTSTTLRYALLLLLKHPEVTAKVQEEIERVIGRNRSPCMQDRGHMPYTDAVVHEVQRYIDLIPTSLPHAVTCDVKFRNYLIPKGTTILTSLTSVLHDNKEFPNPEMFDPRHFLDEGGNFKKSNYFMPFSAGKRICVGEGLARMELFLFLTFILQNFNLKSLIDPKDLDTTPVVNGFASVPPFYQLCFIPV
smiles,measurement,setting,value
CCOC(=O)N1CCN(c2nc(-c3cccs3)nc3ccccc23)CC1,CC50,[1],> 50 µM (active)
CN(NC1OC(=O)c2ccccc21)c1ccc(C(F)(F)F)cc1[N+](=O)[O-] (stereo unspecified),EC50,[2],> 195 µM (not active)
Cc1cc(-c2ccc(C)c(S(=O)(=O)NCCC(C)N3CCCCCC3)c2)on1 (stereo unspecified),EC50,[2],> 195 µM (not active)
CC(=O)Nc1ccc(O)c(-c2nc3ccccc3s2)c1,EC50,[3],21.2 µM (active)
same,EC50,[4],22.5 µM (active)
Cc1csc(NC(=O)C2=COCCO2)n1,EC50,[3],3.11 µM (active)
same,EC50,[4],> 120 µM (not active)
O=C(COC(=O)/C=C/c1ccc(C(F)(F)F)cc1)NC1CC1,EC50,[2],> 195 µM (not active)
CC1Cc2ccccc2N1C(=O)Cn1c(=O)cc(O)c2ccccc21 (stereo unspecified),AC50,[5],22.4 µM (inconclusive)
same,AC50,[6],39.8 µM (inconclusive)
CCOC(=O)c1c(C)[nH]c(C2=NN=C(NC3CC3)SC2)c1C,CC50,[1],28.1 µM (active)
CN(C)C(=O)c1ccc(-c2ccc3ncnc(NCc4cccs4)c3c2)cc1,AC50,[6],20 µM (inconclusive)
COc1ccc2c(C)cc(N3CCOCC3)nc2c1,AC50,[5],31.6 µM (inconclusive)
Cc1ccc2nc(-c3ccc(NC(=O)COC(=O)c4ccc([N+](=O)[O-])o4)cc3)sc2c1,EC50,[7],10.9 µM (inconclusive)
COc1cccc(Nc2cc(C)c3ccccc3n2)c1,CC50,[1],32 µM (active)
CCn1c(SCc2nc3ccccc3[nH]2)nnc1-c1ccc(OC)cc1,AC50,[6],20 µM (inconclusive)
CC1CCN(C(S)=NCCc2ccccc2)CC1,EC50,[3],0.102 µM (active)
same,EC50,[4],31.3 µM (active)
COC(=O)c1ccccc1NC(=O)c1ccc(F)cc1,AC50,[5],25.1 µM (inconclusive)
CCCNC(=O)c1ccc(COc2ccc(CCC)cc2OC)o1,EC50,[2],> 195 µM (not active)
COc1cc(/C=C2/C(=N)N3N=C(CC(=O)N4CCOCC4)SC3=NC2=O)ccc1OCc1ccccc1,EC50,[3],10.5 µM (active)
same,EC50,[4],14.5 µM (active)
COc1ccc(NC(=O)C(F)(F)F)cc1OC,AC50,[5],22.4 µM (inconclusive)
same,AC50,[8],39.8 µM (inconclusive)
S=C(c1ccc(-c2ccc(Cl)cc2Cl)o1)N1CCCCC1,EC50,[3],50 µM (active)
same,EC50,[4],1.97 µM (active)
COc1cc(C(=O)Nc2ccccc2NC(=O)c2cc(OC)c(OC)c(OC)c2)cc(OC)c1OC,EC50,[2],> 195 µM (not active)
CC/C(O)=C(\C#N)c1nnc2n1CCCCC2,AC50,[5],1 µM (inconclusive)
same,AC50,[9],14.1 µM (inconclusive)
CC(C)NC(=O)COC(=O)C1CSC2(c3ccc(Br)cc3)CCC(=O)N12 (stereo unspecified),EC50,[2],> 195 µM (not active)
CCOC(=O)c1c(-c2ccccc2)cn2ccccc12,AC50,[6],3.16 µM (inconclusive)
same,AC50,[10],12.6 µM (inconclusive)
Cc1noc(C)c1C(=O)N1CCC[C@@]2(CCN(c3ccccc3)C2)C1,AC50,[5],25.1 µM (inconclusive)
same,AC50,[9],25.1 µM (inconclusive)
same,AC50,[8],20 µM (inconclusive)
c1ccc2c(c1)-c1nc3ccccc3cc1[C@H]2N1CCOCC1,AC50,[5],3.16 µM (inconclusive)
same,AC50,[8],6.31 µM (inconclusive)
C/C=C/c1ccc(OCC(=O)NCc2ccccc2OC)c(OC)c1,CC50,[1],40.4 µM (active)
CC(CCc1ccccc1)NC(=O)CCNS(=O)(=O)c1ccccc1 (stereo unspecified),EC50,[2],> 195 µM (not active)
Cc1noc(C)c1-c1ccc2ncnc(Nc3ccc(F)cc3)c2c1,AC50,[6],39.8 µM (inconclusive)
same,AC50,[10],15.8 µM (inconclusive)
CCCNC(=O)Nc1ccc2c(c1)nc(C)n2C,AC50,[5],0.562 µM (inconclusive)
same,AC50,[9],15.8 µM (inconclusive)
Cn1c(CSc2nc3cc(Br)ccc3[nH]2)nc2ccccc21,CC50,[1],> 50 µM (active)
O=C(NCc1ccccc1C(F)(F)F)C1CC(c2ccc(C(F)(F)F)cc2)=NO1 (stereo unspecified),EC50,[2],> 195 µM (not active)
CC1(C)Cc2c(C#N)c(NCCO)nc(-c3ccco3)c2CO1,EC50,[2],> 195 µM (not active)
COc1ccccc1-c1ccc2ncnc(N(C)C)c2c1,AC50,[6],12.6 µM (inconclusive)
O=C(COC(=O)COc1ccccc1)Nc1ccc(OC(F)(F)F)cc1,AC50,[5],39.8 µM (inconclusive)
CCCOc1ccc(-c2n[nH]c(S)n2)cc1,CC50,[1],25.1 µM (active)
Nc1ncnc2[nH]c(N3CCN(C(=O)c4ccccc4)CC3)nc12,EC50,[2],> 195 µM (not active)
CNc1ncncc1-c1ccccc1C(F)(F)F,AC50,[5],39.8 µM (inconclusive)
same,AC50,[6],39.8 µM (inconclusive)
c1ccc2c(NC3CC3)nc(-c3ccoc3)nc2c1,AC50,[5],25.1 µM (inconclusive)
COc1ccc([C@H]2CC(=O)C=C(c3ccc(Cl)c(C(F)(F)F)c3)C2)cc1,CC50,[1],12.9 µM (active)
CCOC(=O)C1=C(NC(=S)NC(=O)c2ccccc2)c2ccccc2CC1(C)CC (stereo unspecified),CC50,[1],12.5 µM (active)
C/C(=N/NC(=O)CNC(=O)c1ccccn1)c1ccc([N+](=O)[O-])cc1,EC50,[2],> 195 µM (not active)
Cc1ccc(/N=C/c2ccc[nH]2)c(O)c1,EC50,[2],> 195 µM (not active)
O=C(CN1c2ccccc2Sc2ccccc21)NNC(=O)Nc1ccc(Cl)cc1,CC50,[1],> 50 µM (active)
Cc1ccccc1CSc1nccn1-c1ccccc1,AC50,[6],17.8 µM (inconclusive)
Nc1nc2ccc(Cl)cc2c2nc(-c3ccco3)nn12 [CGS-15943],AC50,[6],12.6 µM (inconclusive)
same,AC50,[10],7.94 µM (inconclusive)
same,AC50,[8],31.6 µM (inconclusive)
CCO/C(O)=C1\C(C)=NC2=C(C(=O)CCC2)C1c1cn(Cc2ccc(Cl)cc2Cl)nc1-c1ccccc1 (stereo unspecified),CC50,[1],30.6 µM (active)
CCOC(=O)C(/C=N/CC(=O)O)=C(\O)OCC,AC50,[6],39.8 µM (inconclusive)
Cc1cccc(Cn2cnc3c(NS(C)(=O)=O)c(C)c(C)cc32)c1,AC50,[6],35.5 µM (inconclusive)
same,AC50,[8],1.26 µM (inconclusive)
CCc1nn(C(C)C(=O)N2CCN(c3ccccc3)CC2)c(=O)c2cc3occc3n12 (stereo unspecified),CC50,[1],20.4 µM (active)
c1ccc(CCCNc2nnnc3ccccc23)cc1,AC50,[5],3.16 µM (inconclusive)
COc1ccc(NC(=O)C2C(c3ccccc3)C2(Cl)Cl)cc1 (stereo unspecified),CC50,[1],17.7 µM (active)
COc1ccc2nc(O)c(CNc3ccccc3)cc2c1,CC50,[1],34.4 µM (active)
COc1ccc(/C=N/N(C)C2=NCCN2)c(OC)c1OC,EC50,[2],> 195 µM (not active)
